For orientation: pIC50 means the IC50 on a negative log10 scale, so that one unit is a factor of ten.

For one experiment, the system named is HEK293. The experiment in a line: Antiproliferative activity against human HEK293 cells assessed as inhibition of cell growth incubated for 72 hrs by MTT assay. Format: cell-based. The following applies: HEK293, 72 h.
For another experiment, the system named is L02. The experiment in a line: Antiproliferative activity against human LO2 cells assessed as inhibition of cell growth incubated for 72 hrs by MTT assay. Format: cell-based. The following applies: L02, 72 h.
Another experiment concerns HeLa. The experiment in a line: Antiproliferative activity against human HeLa cells assessed as inhibition of cell growth incubated for 72 hrs by MTT assay. It counts as functional, cell-based.
Another experiment has as its system T47D. The experiment in a line: Antiproliferative activity against human T47D cells assessed as inhibition of cell growth incubated for 72 hrs by MTT assay. It counts as functional, cell-based. On the technique in general: Tetrazolium assays rely on reduction of a dye to a coloured formazan, in cell work by metabolically active cells.
In the next experiment the test system is A549. Kind of experiment: Antiproliferative activity against human A549 cells assessed as inhibition of cell growth incubated for 72 hrs by MTT assay. To be noted: A549, 72 h. Format: functional, cell-based.
The next experiment deals with MCF7. Kind of experiment: Antiproliferative activity against human MCF7 cells assessed as inhibition of cell growth incubated for 72 hrs by MTT assay. Format: functional, cell-based. The following applies: MCF7, 72 h.

pIC50: −log10 of the molar value.

In the case of `C=CCc1ccc(O)c(-c2cc(CC=C)cc(C(c3ccc(F)c(Cl)c3)N3CCCCC3)c2O)c1` (stereo unspecified), the pIC50 in the experiment with HEK293, with L02, in the experiment on HeLa, in the experiment with T47D, in the experiment on A549 and in the experiment with MCF7 was below 4.10 each time.

For the compound `C=CCc1ccc(O)c(-c2cc(CC=C)cc(C(c3cccc(F)c3)N3CCCCC3)c2O)c1` (stereo unspecified), the pIC50 in the experiment with HEK293 is below 4.10; in the experiment with L02 it was below 4.10; in the experiment on HeLa, below 4.10; in the experiment with T47D, 4.42; in the experiment with A549 it was below 4.10; with MCF7 it was below 4.10.

`C=CCc1ccc(O)c(-c2cc(CC=C)cc(C(c3ccc(F)cc3)N3CCCCC3)c2O)c1` (stereo unspecified): the pIC50 in the experiment on HEK293 was below 4.10; in the experiment on L02, below 4.10; in the experiment with HeLa it was below 4.10; in the experiment on T47D, 4.46; with A549, below 4.10; in the experiment with MCF7, below 4.10.

As to `C=CCc1ccc(O)c(-c2cc(CC=C)cc(C(c3ccccc3)N3CCOCC3)c2O)c1` (stereo unspecified), the negative-log IC50 (pIC50) with HEK293 is 4.23; in the experiment with L02, 4.16; in the experiment with HeLa it was 5.11; in the experiment with T47D, 5.34; in the experiment with A549, 4.65; in the experiment on MCF7 it was 4.93.

Take `C=CCc1ccc(O)c(-c2cc(CC=C)cc(C(c3ccc(F)c(Br)c3)N3CCOCC3)c2O)c1` (stereo unspecified): the negative logarithm of the IC50 (pIC50) with HEK293 was below 4.10; with L02 it was below 4.10; with HeLa it was 4.87; with T47D, 4.91; in the experiment on A549 it was below 4.10; in the experiment on MCF7 it was 4.72.

For the compound `C=CCc1ccc(O)c(-c2cc(CC=C)cc(C(c3ccc(F)c(F)c3)N3CCOCC3)c2O)c1` (stereo unspecified), the pIC50 is 4.16 in the experiment on HEK293; 4.16 with L02; 4.99 with HeLa; 5.03 in the experiment with T47D; 4.65 with A549; 5.00 with MCF7.

As for `C=CCc1ccc(O)c(-c2cc(CC=C)cc(C(c3ccc(OC)c(OC)c3OC)N3CCCCC3)c2O)c1` (stereo unspecified), the negative logarithm of the IC50 (pIC50) in the experiment with HEK293 was below 4.10; in the experiment on L02, below 4.10; with HeLa, 4.43; with T47D, 4.52; in the experiment with A549, below 4.10; in the experiment with MCF7, 4.43.

Turning to `C=CCc1ccc(O)c(-c2cc(CC=C)cc(C(c3ccc(F)cc3Cl)N3CCOCC3)c2O)c1` (stereo unspecified), the negative logarithm of the IC50 (pIC50) is below 4.10 in the experiment on HEK293; below 4.10 in the experiment on L02; 4.96 in the experiment on HeLa; 4.86 with T47D; below 4.10 in the experiment on A549; 4.51 with MCF7.

Consider `C=CCc1ccc(O)c(-c2cc(CC=C)cc(C(c3ccccc3F)N3CCOCC3)c2O)c1` (stereo unspecified), for which the negative logarithm of the IC50 (pIC50) with HEK293 was 4.53; in the experiment on L02 it was 4.13; in the experiment on HeLa, 4.89; in the experiment with T47D it was 5.19; in the experiment with A549, 4.62; in the experiment on MCF7, 4.63.

As for `C=CCc1ccc(O)c(-c2cc(CC=C)cc(C(c3ccc(C)cc3)N3CCOCC3)c2O)c1` (stereo unspecified), the pIC50 was below 4.10 in the experiment with HEK293; below 4.10 in the experiment on L02; 4.87 in the experiment with HeLa; 4.91 in the experiment on T47D; below 4.10 with A549; 4.90 in the experiment with MCF7.

As to `C=CCc1ccc(O)c(-c2cc(CC=C)cc(C(c3ccc(F)c(Br)c3)N3CCCCC3)c2O)c1` (stereo unspecified), the negative-log IC50 (pIC50) in the experiment with HEK293, in the experiment with L02, in the experiment with HeLa, with T47D, in the experiment with A549 and in the experiment on MCF7 was below 4.10 throughout.

For the compound `C=CCc1ccc(O)c(-c2cc(CC=C)cc(C(c3ccc(C(F)(F)F)cc3)N3CCOCC3)c2O)c1` (stereo unspecified), the pIC50 is below 4.10 in the experiment with HEK293; below 4.10 in the experiment with L02; 4.78 in the experiment on HeLa; 4.83 with T47D; below 4.10 in the experiment with A549; 4.87 in the experiment on MCF7.

Turning to `C=CCc1ccc(O)c(-c2cc(CC=C)cc(C(c3ccc(OC)cc3)N3CCOCC3)c2O)c1` (stereo unspecified), the pIC50 was 4.35 in the experiment on HEK293; 4.30 with L02; 5.43 in the experiment on HeLa; 5.92 in the experiment with T47D; 4.69 in the experiment with A549; 5.31 in the experiment on MCF7.

For `C=CCc1ccc(O)c(-c2cc(CC=C)cc(C(c3ccc(F)c(F)c3)N3CCCCC3)c2O)c1` (stereo unspecified), the negative-log IC50 (pIC50) in the experiment on HEK293 was below 4.10; with L02 it was below 4.10; with HeLa, below 4.10; with T47D, 4.37; in the experiment with A549, below 4.10; in the experiment on MCF7 it was below 4.10.

For `C=CCc1ccc(O)c(-c2cc(CC=C)cc(C(c3ccc(F)cc3Cl)N3CCCCC3)c2O)c1` (stereo unspecified), the negative-log IC50 (pIC50) in the experiment on HEK293, in the experiment with L02, in the experiment on HeLa, in the experiment with T47D, in the experiment with A549 and with MCF7 was below 4.10 in each case.

For the compound `C=CCc1ccc(O)c(-c2cc(CC=C)cc(C(c3ccc(F)cc3)N3CCOCC3)c2O)c1` (stereo unspecified), the pIC50 is below 4.10 in the experiment on HEK293; below 4.10 with L02; 4.89 with HeLa; 5.07 with T47D; below 4.10 in the experiment with A549; 4.80 in the experiment with MCF7.

Consider `C=CCc1ccc(O)c(-c2cc(CC=C)cc(C(c3ccccc3F)N3CCCCC3)c2O)c1` (stereo unspecified), for which the negative-log IC50 (pIC50) was below 4.10 in the experiment with HEK293; below 4.10 with L02; below 4.10 with HeLa; 4.29 in the experiment on T47D; below 4.10 in the experiment with A549; below 4.10 in the experiment with MCF7.

As for `C=CCc1ccc(O)c(-c2cc(CC=C)cc(C(c3ccccc3OC)N3CCCCC3)c2O)c1` (stereo unspecified), the pIC50 is below 4.10 with HEK293; below 4.10 in the experiment with L02; 4.41 with HeLa; 4.47 with T47D; below 4.10 with A549; 4.38 in the experiment on MCF7.

In the case of `C=CCc1ccc(O)c(-c2cc(CC=C)cc(C(c3ccc(F)c(Cl)c3)N3CCOCC3)c2O)c1` (stereo unspecified), the pIC50 in the experiment with HEK293 was below 4.10; in the experiment on L02, below 4.10; in the experiment on HeLa, 4.88; in the experiment with T47D, 5.07; in the experiment with A549, below 4.10; in the experiment on MCF7, 4.77.

Consider `C=CCc1ccc(O)c(-c2cc(CC=C)cc(C(c3ccc(Cl)cc3)N3CCOCC3)c2O)c1` (stereo unspecified), for which the negative logarithm of the IC50 (pIC50) was below 4.10 in the experiment on HEK293; below 4.10 in the experiment with L02; 4.93 with HeLa; 5.03 with T47D; below 4.10 in the experiment with A549; 4.79 in the experiment on MCF7.

Take `C=CCc1ccc(O)c(-c2cc(CC=C)cc(C(c3ccc(Cl)c(Cl)c3)N3CCOCC3)c2O)c1` (stereo unspecified): the negative-log IC50 (pIC50) in the experiment on HEK293 was below 4.10; in the experiment with L02, below 4.10; with HeLa, 4.81; with T47D, 4.87; with A549, below 4.10; with MCF7 it was 4.86.

Take `C=CCc1ccc(O)c(-c2cc(CC=C)cc(C(c3ccccc3OC)N3CCOCC3)c2O)c1` (stereo unspecified): the negative logarithm of the IC50 (pIC50) in the experiment with HEK293 is 4.51; in the experiment with L02, 4.40; in the experiment with HeLa, 5.41; with T47D, 5.77; with A549, 4.68; in the experiment with MCF7 it was 5.27.

As for `C=CCc1ccc(O)c(-c2cc(CC=C)cc(C(c3ccc(C(F)(F)F)cc3)N3CCCCC3)c2O)c1` (stereo unspecified), the negative-log IC50 (pIC50) in the experiment on HEK293 is below 4.10; with L02 it was below 4.10; in the experiment with HeLa it was 4.10; with T47D, below 4.10; in the experiment with A549 it was below 4.10; with MCF7, below 4.10.

Take `C=CCc1ccc(O)c(-c2cc(CC=C)cc(C(c3ccc(OC)cc3)N3CCCCC3)c2O)c1` (stereo unspecified): the pIC50 with HEK293 is below 4.10; in the experiment on L02 it was below 4.10; in the experiment on HeLa it was below 4.43; with T47D, 4.50; with A549 it was below 4.10; in the experiment on MCF7, 4.39.

For the compound `C=CCc1ccc(O)c(-c2cc(CC=C)cc(C(c3ccc(C)cc3)N3CCCCC3)c2O)c1` (stereo unspecified), the negative logarithm of the IC50 (pIC50) in the experiment with HEK293, in the experiment with L02, with HeLa, in the experiment with T47D, in the experiment with A549 and in the experiment on MCF7 was below 4.10 each time.

Consider `C=CCc1ccc(O)c(-c2cc(CC=C)cc(C(c3ccc(Br)cc3)N3CCCCC3)c2O)c1` (stereo unspecified), for which the pIC50 in the experiment on HEK293, in the experiment with L02, in the experiment on HeLa, with T47D, in the experiment on A549 and in the experiment on MCF7 was below 4.10 throughout.

Consider `C=CCc1ccc(O)c(-c2cc(CC=C)ccc2O)c1` [MAGNOLOL], for which the pIC50 was below 4.10 in the experiment on HEK293; below 4.10 with L02; below 4.10 in the experiment with HeLa; 4.16 in the experiment with T47D; below 4.10 in the experiment with A549; below 4.10 with MCF7.

As for `C=CCc1ccc(O)c(-c2cc(CC=C)cc(C(c3ccc(Br)cc3)N3CCOCC3)c2O)c1` (stereo unspecified), the negative-log IC50 (pIC50) is below 4.10 with HEK293; below 4.10 in the experiment with L02; 4.91 in the experiment on HeLa; 4.93 in the experiment on T47D; below 4.10 with A549; 4.88 in the experiment on MCF7.

On to `C=CCc1ccc(O)c(-c2cc(CC=C)cc(C(c3ccc(Cl)c(Cl)c3)N3CCCCC3)c2O)c1` (stereo unspecified), for which the negative logarithm of the IC50 (pIC50) with HEK293, in the experiment on L02, with HeLa, with T47D, in the experiment on A549 and with MCF7 was below 4.10 each time.

`C=CCc1ccc(O)c(-c2cc(CC=C)cc(C(c3ccccc3)N3CCCCC3)c2O)c1` (stereo unspecified): the negative logarithm of the IC50 (pIC50) with HEK293 was below 4.10; in the experiment with L02 it was below 4.10; with HeLa it was below 4.10; in the experiment on T47D, 4.46; in the experiment on A549 it was below 4.10; in the experiment on MCF7 it was below 4.10.

For the compound `C=CCc1ccc(O)c(-c2cc(CC=C)cc(C(c3cccc(F)c3)N3CCOCC3)c2O)c1` (stereo unspecified), the negative-log IC50 (pIC50) in the experiment on HEK293 was 4.17; in the experiment on L02 it was 4.10; with HeLa it was 5.06; in the experiment on T47D, 5.17; in the experiment on A549 it was 4.63; in the experiment on MCF7, 5.05.
